Measurements: PubChem BioAssay AID1189 (EPA DSSTox, 2008)
Active and inactive are the calls of the source.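 The calls were made as follows: active = a tumor-causing dose value with its tumor site reported for any sex and species group of a rodent or other animal cancer study; inconclusive = only studies judged inadequate by the national testing program; inactive = tested in at least one study, none positive.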

Assay: DSSTox (CPDBAS) Carcinogenic Potency Database Summary SingleCellCall Results
Conditions: animal chronic carcinogenicity bioassays, CPDB summary call
From the text: The Carcinogenic Potency Database (CPDB) is a unique and widely used international resource of the results of over 6500 chronic, long-term animal cancer tests on over 1500 chemical substances. The CPDB provides easy access to the bioassay literature, with qualitative and quantitative analyses of both positive and negative experiments that have been published over the past 50 years in the general literature and by the National Cancer Institute/National Toxicology Program. The CPDB standardizes the diverse literature of cancer bioassays that vary widely in protocol, histopathological examination and nomenclature, and in the published author's choices of what information to provide in their papers. Results are reported in the CPDB for tests in rats, mice, hamsters, dogs, and nonhuman primates, and are based on the most positive result among all experiments for each sex-species. The DSSTox CPDBAS (all species) file incorporates data from the CPDB Summary Tables for the full list of over 1500 chemical substances tested in at least one species. A summary SingleCellCall, based on experimental bioassay results of one or more species, is provided for the entire DSSTox CPDBAS file (see Source URL).
An assignment of categorical carcinogenic activity based on minimal evidence for or against activity. […] Associated TD50 values and tumor site details for the relevant species/sex experiment supporting this overall CPDBAS SingleSiteCall are provided in the full CPDBAS DSSTox file (see Comment) and the corresponding CPDBAS Species Bioassay in PubChem.

Row | SMILES | outcome
1 | CCN=c1cc2oc3cc(NCC)c(C)cc3c(-c3ccccc3C(=O)OCC)c-2cc1C | inactive; active
2 | CC(=O)Nc1ccc2c(c1)Cc1cc(NC(C)=O)ccc1-2 | inactive
3 | c1ccccc1 | active
4 | O=S(=O)(Oc1ccc(Cl)cc1)c1ccc(Cl)cc1 | inactive
5 | C=CCCl | inactive; active
6 | Oc1ccc2c(c1)OCO2 | active; inactive
7 | COc1ccc(O)cc1 | active
8 | COP(=O)(OC)C(O)C(Cl)(Cl)Cl (stereo not drawn) | inactive
9 | S=C1NCCN1 | active; inactive
10 | O=C(NCC1CCCCN1)c1cc(OCC(F)(F)F)ccc1OCC(F)(F)F (stereo not drawn) | inactive
11 | c1ccc(C2CO2)cc1 (stereo not drawn) | active
12 | CC/C(C)=N/O | active; inactive
13 | CC(O)CCl (stereo not drawn) | inactive; active
14 | c1ccc2occc2c1 | active; inactive
15 | OCCN(CCO)CCO | active; inactive
16 | [Cd+2].[Cl-].[Cl-] | active; inactive
17 | O=[N+]([O-])c1c(Cl)c(Cl)c(Cl)c(Cl)c1Cl | active
18 | Cc1[nH]cnc1CSCCN=C(NC#N)N(C)N=O | inactive; active
19 | Cl[C@H]1OCCO[C@@H]1Cl | inactive
20 | C/C=C/c1ccc2c(c1)OCO2 | inactive

Row | SMILES | outcome
21 | Nc1ccccc1C(=O)O | inactive; active
22 | Nc1ccc([N+](=O)[O-])cc1 | inactive; active
23 | C=CCN(CC(C)O)N=O (stereo not drawn) | active
24 | Oc1cccc2cccnc12.Oc1cccc2cccnc12.[Cu] | inactive
25 | CC(F)(Cl)Cl | active
26 | CCN(N=O)C(=O)NCCO | active
27 | O=P(OCC(Br)CBr)(OCC(Br)CBr)OCC(Br)CBr (stereo not drawn) | active
28 | NCCNc1cccc2ccccc12 | inactive; active
29 | CN(C)C(=S)[S][Pb][S]C(=S)N(C)C | inactive
30 | CC(=O)Nc1cccc2c1-c1ccccc1C2 | inactive
31 | O=S1OCC2C(CO1)C1(Cl)C(Cl)=C(Cl)C2(Cl)C1(Cl)Cl (stereo not drawn) | inactive; active
32 | [N-]=[N+]=[N-] | inactive; active
33 | O=C1c2ccccc2-c2ccc3c4c(ccc1c24)-c1ccccc1C3=O | active; inactive
34 | NC(=O)N/N=C/c1ccco1 | inactive
35 | COc1ccc([N+](=O)[O-])cc1N | active
36 | OCC(O)CO | inactive
37 | CC(C)(C)NCC(O)c1ccc(O)c(CO)c1 (stereo not drawn) | active; inactive
38 | CC1CN1P(=O)(N1CC1C)N1CC1C (stereo not drawn) | active
39 | CN(C)c1ccc(N=Nc2ccccc2)cc1 | active
40 | C=CN1CCCC1=O | active; inactive

Row | SMILES | outcome
41 | CC1=C(/C=C/C(C)=C/C=C/C(C)=C/C(=O)O)C(C)(C)CCC1 | inactive
42 | N#CC(c1ccccc1)c1ccccc1 | inactive
43 | O=C(O)CCCC/C=C(\c1ccccc1)c1cccnc1 | inactive; active
44 | NC(=O)N(CCc1ccccc1)N=O | active
45 | C/C=C(\C)C(=O)O[C@@H]1CCN2CC=C(COC(=O)C(O)(C(C)C)C(C)O)[C@H]12 (stereo partly drawn) | active
46 | O=NN1CC=CCO1 | active
47 | COc1cc2c(cc1N)oc1ccccc12 | active
48 | CCCCCCOc1cc(C)c(O)c(C)c1C | inactive; active
49 | ClCc1ccccn1 | inactive
50 | CN1[C@@H]2CC[C@H]1CC(OC(=O)C(CO)c1ccccc1)C2 (stereo partly drawn) | inactive; active
51 | O=NN1CCC1 | active
52 | CN(C)Nc1nc(-c2ccc([N+](=O)[O-])o2)cs1 | active; inactive
53 | Nc1ccc(O)c(N)c1 | active
54 | O.O=S(=O)([O-])[O-].[Mn+2] | inactive
55 | ClCC1CO1 (stereo not drawn) | active
56 | O=NO | active
57 | FC(F)=C(F)F | active; inactive
58 | CC(=O)Nc1cccc2c1Cc1ccccc1-2 | inactive; active
